In US20230406849A1, “KRAS INHIBITORS FOR TREATMENT OF CANCERS” (TYLIGAND BIOSCIENCE (SHANGHAI) LIMITED, priority 2020, published 2023):
Where two headings read alike, the source gives them in different places.

Assays:
Format in all cases: cell-based
A549 (KRasG12S) = assay: KRas mutant cell proliferation, CellTiter-Glo (CTG); conditions: Homo sapiens, A549, KRas G12S, lung cancer, 72 h; for inhibition at up to 10 µM: top concentration 10 μM, read-out: Maximum inhibition %
From the text: (§1) In this assay, the CellTiter-Glo (CTG) kit of Promega was used to evaluate the anti-proliferation activities of the compounds of the present disclosure on 12 KRas mutant tumor cell lines.
(§2) [Test materials]: RPMI1640 medium (Hyclone, Cat #SH30809.01); fetal bovine serum (FBS) (Gibco, Cat #10099-141); phosphate buffer PBS (Solarbio, Cat #P1020-500); DMSO (Sigma, Cat #D8418-1L); detection kit CTG (Promega, Cat #G7573); 96-well cell culture plate (Thermo, Cat #3100 Series); Vibrator (QILINBEIER, Cat #QB-9001); Incubator (Thermo Scientific, Cat #Model 3100 series); microscope (OLYMPUS, Cat #CKX41SF); multi-function microplate reader (BMG LABTECH, Cat #CLARIOstar® Plus); biological safety cabinet (Thermo, Cat #Model 1300 Series A2). All cell lines used in the following assay were purchased from KYinno Biotechnology Co., Ltd.
(§3) Each of the above cell lines was cultured in the indicated complete medium at 37° C., 5% CO2, and the cells in the logarithmic growth phase were harvested and counted using a platelet counter. The cell viability was detected by the trypan blue exclusion method to ensure that the cell viability was above 90%. Cell density was adjusted using complete medium, and then inoculated into 96-well cell culture plates, at 90 μL and a total of 3000 cells per well. The cells in the 96-well plate were cultured at 37° C. and 5% CO2.
(§4) The test compound solution in culture medium was prepared, the top concentration was 10 μM, serially diluted at a dilution factor of 3.16 to afford 9 concentrations. 10 μL of each diluted compound solution was transferred to the corresponding experimental well of the 96-well cell plate and each concentration was set three replicate wells. The cells in the 96-well plate that had been dosed were incubated at 37° C. and 5% CO2 for 72 hours, and then CTG analysis was performed.
(§5) The CTG reagent was melted, and the cell plate was moved to room temperature to equilibrate for 30 minutes. 100 μL of CTG solution was added to each well, and shaken on an orbital shaker for 5 minutes to fully lyse the cells. The plate was kept at room temperature for 20 minutes to stabilize the luminescence signal, and the luminescence value of each well was scanned and the data was collected. GraphPad Prism 7.0 software was used to analyze the data, and the nonlinear Sigmoidal regression was used to fit the data to obtain a dose-response curve. The relative and absolute IC50 values and the maximum inhibition rate were calculated according to conventional methods well known to those skilled in the art.
(§6) Inhibition rate %=[1−(LumDrug to be tested−LumCulture medium control)/(LUMCell control−LumCulture medium control)]×100%

H23 (KRas-G12C) = assay: as above; conditions: lung cancer, 72 h; for inhibition at up to 10 µM: top concentration 10 μM, read-out: Maximum inhibition %
From the text: as §1, §2, §3, §4, §5, §6

SW837 (KRas-G12C) = assay: as above; conditions: Homo sapiens, rectal cancer, 72 h; for inhibition at up to 10 µM: top concentration 10 μM, read-out: Maximum inhibition %
From the text: as §1, §2, §3, §4, §5, §6

HCT116 (KRas-G13D) = assay: as above; conditions: Homo sapiens, HCT-116, colorectal cancer, 72 h; for inhibition at up to 10 µM: top concentration 10 μM, read-out: Maximum inhibition %
From the text: as §1, §2, §3, §4, §5, §6

T84 (KRas-G13D) = assay: as above; conditions: colon cancer, 72 h; for inhibition at up to 10 µM: top concentration 10 μM, read-out: Maximum inhibition %
From the text: as §1, §2, §3, §4, §5, §6

Kyse-410 (KRas-G12C) = assay: as above; conditions: Homo sapiens, esophageal cancer, 72 h; for inhibition at up to 10 µM: top concentration 10 μM, read-out: Maximum inhibition %
From the text: as §1, §2, §3, §4, §5, §6

H1373 (KRas-G12C) = assay: as above; conditions: Homo sapiens, NCI-H1373, lung cancer, 72 h; for inhibition at up to 10 µM: top concentration 10 μM, read-out: Maximum inhibition %
From the text: as §1, §2, §3, §4, §5, §6

MIA-PaCa-2 (KRas-G12C) = assay: as above; conditions: Homo sapiens, pancreatic cancer, 72 h; for inhibition at up to 10 µM: top concentration 10 μM, read-out: Maximum inhibition %
From the text: as §1, §2, §3, §4, §5, §6

BaF3-KRas-G12C-H95Q = assay: Proliferation of KRas G12C inhibitor-resistant cell model, CTG; conditions: Adagrasib acquired-resistance model
Description: as §3
(§7) 10 μL of each diluted compound solution was transferred to the corresponding experimental well of the 96-well cell plate and each concentration was set three replicate wells. The cells in the 96-well plate that had been dosed were incubated at 37° C. and 5% CO2 for 72 hours, and then CTG analysis was performed.
as §5, §6
(§8) Acquired resistance is one of the key factors that affect the treatment efficacy of KRas G12C inhibitors.
(§9) All cell lines used in this assay were provided by KYinno Biotechnology Co., Ltd.

BaF3-KRas-G12C-H95D = assay: as above; conditions: Adagrasib acquired-resistance model
Description: as §3, §7, §5, §6, §8, §9

BaF3-KRas-G12C-Y96C = assay: as above; conditions: Adagrasib acquired-resistance model
Description: as §3, §7, §5, §6, §8, §9

BaF3-KRas-G12C-R68S = assay: as above; conditions: Adagrasib acquired-resistance model
Description: as §3, §7, §5, §6, §8, §9

BaF3-KRas-G12C-Y96D = assay: as above; conditions: Adagrasib acquired-resistance model
Description: as §3, §7, §5, §6, §8, §9

| IC50 (A549 (KRasG12S); read-out: Absolute IC50) [nM] | IC50 (A549 (KRasG12S); read-out: Relative IC50) [nM] | IC50 (SW837 (KRas-G12C); read-out: Absolute IC50) [nM] | IC50 (SW837 (KRas-G12C); read-out: Relative IC50) [nM] | IC50 (HCT116 (KRas-G13D); read-out: Absolute IC50) [nM] | IC50 (HCT116 (KRas-G13D); read-out: Relative IC50) [nM] | IC50 (H1373 (KRas-G12C); read-out: Absolute IC50) [nM] | IC50 (H1373 (KRas-G12C); read-out: Relative IC50) [nM] | SMILES | inhibition at up to 10 µM (A549 (KRasG12S)) [%] | IC50 (H23 (KRas-G12C); read-out: Absolute IC50) [nM] | IC50 (H23 (KRas-G12C); read-out: Relative IC50) [nM] | inhibition at up to 10 µM (H23 (KRas-G12C)) [%] | inhibition at up to 10 µM (SW837 (KRas-G12C)) [%] | inhibition at up to 10 µM (HCT116 (KRas-G13D)) [%] | IC50 (T84 (KRas-G13D); read-out: Absolute IC50) [nM] | IC50 (T84 (KRas-G13D); read-out: Relative IC50) [nM] | inhibition at up to 10 µM (T84 (KRas-G13D)) [%] | IC50 (Kyse-410 (KRas-G12C); read-out: Absolute IC50) [nM] | IC50 (Kyse-410 (KRas-G12C); read-out: Relative IC50) [nM] | inhibition at up to 10 µM (Kyse-410 (KRas-G12C)) [%] | also measured |
| --- | --- | --- | --- | --- | --- | --- | --- | --- | --- | --- | --- | --- | --- | --- | --- | --- | --- | --- | --- | --- | --- |
| > 10000 | > 10000 | 431 | 17 | 7060 | 5890 | 1510 | 1640 | C=CC(=O)N1CCN(c2c(C#N)cnc3c(F)c(-c4ccc(F)c5sc(N)nc45)c(Cl)cc23)CC1 [Example 9, 4-(4-Acryloylpiperazin-1-yl)-7-(2-amino-7-fluorobenzo[d]thiazol-4-yl)-6-chloro-8-fluoroquinoline-3-carbonitrile] | 44.1 | 273 | 205 | 94.4 | 60 | 62 | > 10000 | > 10000 | 14.7 | 1570 | 2040 | 77.5 | inhibition at up to 10 µM (H1373 (KRas-G12C)): 80.3%; IC50 (MIA-PaCa-2 (KRas-G12C); read-out: Absolute IC50): 81 nM; IC50 (MIA-PaCa-2 (KRas-G12C); read-out: Relative IC50): 36 nM; inhibition at up to 10 µM (MIA-PaCa-2 (KRas-G12C)): 85.9%; IC50 (BaF3-KRas-G12C-H95Q): 91 nM; IC50 (BaF3-KRas-G12C-H95D): 100 nM; IC50 (BaF3-KRas-G12C-Y96C): 310 nM; IC50 (BaF3-KRas-G12C-R68S): 560 nM; IC50 (BaF3-KRas-G12C-Y96D): 1290 nM |
| > 10000 | > 10000 | > 10000 | 18 | > 10000 | > 10000 | 3240 | 1920 | C=CC(=O)N1CCN(c2ncnc3c(F)c(-c4ccc(F)c5sc(N)nc45)c(Cl)cc23)CC1 [Ref. Comp. A, reference compound] | 19.7 | 521 | 320 | 85.9 | 48.6 | 29.3 | > 10000 | > 10000 | 4.59 | 7240 | 5630 | 58.3 | inhibition at up to 10 µM (H1373 (KRas-G12C)): 65.2%; IC50 (MIA-PaCa-2 (KRas-G12C); read-out: Absolute IC50): 92 nM; IC50 (MIA-PaCa-2 (KRas-G12C); read-out: Relative IC50): 41 nM; inhibition at up to 10 µM (MIA-PaCa-2 (KRas-G12C)): 74.5%; IC50 (BaF3-KRas-G12C-H95Q): 120 nM; IC50 (BaF3-KRas-G12C-H95D): 150 nM; IC50 (BaF3-KRas-G12C-Y96C): 550 nM; IC50 (BaF3-KRas-G12C-R68S): 1790 nM; IC50 (BaF3-KRas-G12C-Y96D): 3240 nM |
